Measured values as given in ChEMBL document CHEMBL3399954, “Design and synthesis of new tricyclic indoles as potent modulators of the S1P1 receptor” (Bioorg Med Chem Lett, 2015).

Legend:
[1] = Half life in mouse liver microsomes; format: ADME
[2] = Half life in rat liver microsomes; format: ADME
[3] = Half life in human liver microsomes; format: ADME
[4] = Clearance in Sprague-Dawley rat at 1 mg/kg, iv and 1 mg/kg, po; format: ADME, organism-based; settings: in vivo
[5] = Volume of distribution at steady state in Sprague-Dawley rat at 1 mg/kg, iv and 1 mg/kg, po; format: ADME, organism-based; settings: in vivo, read-out: Vdss
[6] = AUClast in Sprague-Dawley rat at 1 mg/kg, iv and 1 mg/kg, po; format: ADME, organism-based; settings: plasma
[7] = Half life in Sprague-Dawley rat at 1 mg/kg, iv; format: ADME, organism-based; parameters: dose 1 mg/kg, route intravenous; settings: in vivo
[8] = Oral bioavailability in Sprague-Dawley rat at 1 mg/kg; format: ADME, organism-based; settings: in vivo

- half-life [1]: > 1 h
- half-life [2]: > 1 h
- half-life [3]: > 1 h
- clearance [4]: 10.7 mL/min/kg
- Vd [5]: 6.71 L/kg
- AUC(0-t) [6]: 1320 ng·h/mL
- half-life [7]: 9.49 h
- bioavailability [8]: < 2%
SMILES: O=C(O)CC1NCCc2c1[nH]c1ccc(OCc3ccc(C4CCCC4)c(C(F)(F)F)c3)cc21 (single isomer, unassigned)
